From patent US20020151581A1, “Glucose and lipid lowering compounds” (priority 1998, published 2002)
Like-named read-outs stand apart in the source and are kept apart here.

Key:
[1] = target: T1, recombinant hormone-sensitive lipase (Homo sapiens, UniProt Q05469); assay: Inhibition of recombinant (purified) hormone-sensitive lipase on glycerol-stabilized triolein; assay type: biochemical; details: test compound 100 μM, read-out: % inhibition Purified HSL
T1 construct: made in house
T1 sequence (Q05469 1-1076): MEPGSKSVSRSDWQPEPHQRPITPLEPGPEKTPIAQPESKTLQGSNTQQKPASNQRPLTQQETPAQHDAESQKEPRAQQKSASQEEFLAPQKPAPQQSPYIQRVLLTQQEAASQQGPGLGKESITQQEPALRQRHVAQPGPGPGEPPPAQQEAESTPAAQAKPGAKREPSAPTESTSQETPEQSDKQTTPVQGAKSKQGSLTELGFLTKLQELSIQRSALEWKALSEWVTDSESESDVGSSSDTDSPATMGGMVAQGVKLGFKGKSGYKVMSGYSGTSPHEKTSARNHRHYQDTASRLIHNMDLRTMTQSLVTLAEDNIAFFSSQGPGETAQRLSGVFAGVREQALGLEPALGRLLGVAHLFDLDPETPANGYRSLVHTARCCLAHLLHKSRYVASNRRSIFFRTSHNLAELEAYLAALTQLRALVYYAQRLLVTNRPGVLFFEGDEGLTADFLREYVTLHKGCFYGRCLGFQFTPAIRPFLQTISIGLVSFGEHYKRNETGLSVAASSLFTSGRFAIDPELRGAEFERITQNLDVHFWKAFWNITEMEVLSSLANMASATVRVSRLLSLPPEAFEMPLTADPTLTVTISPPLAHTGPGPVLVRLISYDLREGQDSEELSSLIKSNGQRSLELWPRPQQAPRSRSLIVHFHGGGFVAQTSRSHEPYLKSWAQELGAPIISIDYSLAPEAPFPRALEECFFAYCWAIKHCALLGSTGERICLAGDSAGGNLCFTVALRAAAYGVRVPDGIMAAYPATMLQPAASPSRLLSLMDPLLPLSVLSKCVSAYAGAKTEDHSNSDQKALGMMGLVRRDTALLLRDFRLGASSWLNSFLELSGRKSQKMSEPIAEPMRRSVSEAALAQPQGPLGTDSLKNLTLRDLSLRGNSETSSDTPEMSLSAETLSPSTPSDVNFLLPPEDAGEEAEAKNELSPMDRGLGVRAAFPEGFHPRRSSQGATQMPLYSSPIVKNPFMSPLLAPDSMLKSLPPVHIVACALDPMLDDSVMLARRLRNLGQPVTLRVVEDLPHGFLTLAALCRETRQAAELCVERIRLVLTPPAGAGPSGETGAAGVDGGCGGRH
Experimental: Recombinant hormone-sensitive lipase protein isolated from a bacterial expression vector was pre-incubated with a compound of the invention (e.g., 100 μM) prior to the addition of substrate, emulsified triolein phosphatidylcholine/phosphatidylinositol (PC/PI), to initiate the reaction. At various time points, aliquots of the reaction were taken, and the level of glycerol used as an index of enzyme activity. Pharmacological specificity is determined by incubating test compound with other mammalian and non-mammalian lipase enzyme systems to assess inhibition of activity. […]
In a similar manner to that described in Example 4 above, 2α-benzoyloxy-4,5,7,8,11αH-eudesman-8,12-olide at 100 μM was evaluated for ability to activity of recombinant hormone-sensitive lipase and hormone-sensitive lipase derived from a preparation of 3T3-cell lysate on glycerol-stabilized triolein.

hepatic lipase = target: T2, hepatic lipase (Homo sapiens, UniProt P11150); assay: Inhibition of hepatic lipase, glycerol stabilized triolein substrate; assay type: biochemical; set-up: Pur. Hepatic Lipase + test compound (enzyme activity): unit not given beside the values; details: test compound 100 μM
T2 sequence (P11150 23-499): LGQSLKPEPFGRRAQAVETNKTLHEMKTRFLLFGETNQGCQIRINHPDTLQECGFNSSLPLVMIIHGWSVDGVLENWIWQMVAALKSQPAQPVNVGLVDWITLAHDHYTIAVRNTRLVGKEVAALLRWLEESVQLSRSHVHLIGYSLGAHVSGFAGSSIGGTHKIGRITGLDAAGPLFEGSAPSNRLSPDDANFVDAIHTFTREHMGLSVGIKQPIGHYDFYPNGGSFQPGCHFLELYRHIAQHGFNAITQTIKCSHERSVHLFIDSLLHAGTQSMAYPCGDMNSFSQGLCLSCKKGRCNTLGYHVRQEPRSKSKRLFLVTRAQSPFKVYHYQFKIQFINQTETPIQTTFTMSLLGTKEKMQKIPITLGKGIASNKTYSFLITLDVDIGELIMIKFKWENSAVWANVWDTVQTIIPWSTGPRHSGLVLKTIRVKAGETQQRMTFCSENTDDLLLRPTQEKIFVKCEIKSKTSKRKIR

Q: With `CC1C[C@H](OC(=O)c2ccccc2)C[C@]2(C)C[C@H]3OC(=O)[C@@H](C)[C@H]3CC12` (stereo partly drawn) [2α-benzoyloxy-4,5,7,8,11αH-eudesman-8,12-olide] as the compound, how does the melting point read?
A: The melting point was 181 to 183 °C.

Q: And the inhibition at 100 µM ([1]; triolein 30 μM)?
A: Its inhibition at 100 µM is 77%.

Q: And the inhibition at 100 µM ([1]; triolein 67 μM)?
A: Its inhibition at 100 µM is 78%.

Q: And the inhibition at 100 µM ([1]; triolein 100 μM)?
A: Its inhibition at 100 µM is 82%.

Q: And the inhibition at 100 µM ([1]; triolein 201 μM)?
A: Its inhibition at 100 µM is 64%.

Q: What about the inhibition at 100 µM ([1]; triolein 400 μM) of the same compound?
A: The inhibition at 100 µM was 50%.

Q: And the inhibition at 100 µM ([1]; triolein 601 μM)?
A: The inhibition at 100 µM was 40%.

Q: And the inhibition at 100 µM ([1]; triolein 800 μM)?
A: Its inhibition at 100 µM is 18%.

Q: And the inhibition at 100 µM ([1]; triolein 1000 μM)?
A: Its inhibition at 100 µM is 27%.

Q: What about the “inhibition of hepatic lipase (in words)” value (hepatic lipase) of the same compound?
A: Its value is “failed to significantly inhibit”.

Q: What about the “Pur. Hepatic Lipase + test compound (enzyme activity)” value (“Pur. Hepatic Lipase + test compound” below) (hepatic lipase; triolein substrate 30 μM) of the same compound?
A: Its value is 0.08.

Q: And the “Pur. Hepatic Lipase + test compound” value (hepatic lipase; triolein substrate 67 μM)?
A: The value was 0.37.

Q: What about the “Pur. Hepatic Lipase + test compound” value (hepatic lipase; triolein substrate 100 μM) of the same compound?
A: Its value is 0.69.

Q: What about the “Pur. Hepatic Lipase + test compound” value (hepatic lipase; triolein substrate 201 μM) of the same compound?
A: Its value is 6.36.

Q: What about the “Pur. Hepatic Lipase + test compound” value (hepatic lipase; triolein substrate 400 μM) of the same compound?
A: The value was 30.80.

Q: And the “Pur. Hepatic Lipase + test compound” value (hepatic lipase; triolein substrate 1000 μM)?
A: Its value is 151.60.
